“Also recorded” adds a separate entry of the source.
Experiments:
unstressed rats = experiment: Sucrose preference and social interaction tests in unstressed rats; type: in vivo, rat; conditions: 24 hrs after injection
Experimental: Sucrose preference test (SPT). Rats were given a choice between two bottles containing tap water or a 1% sucrose solution (Rygula et al., 2006). Testing was conducted overnight (16 hours), including the full duration of their dark phase. Animals were first trained with both bottles while group-housed. For subsequent tests, including during the baseline period, animals were individually housed. Sucrose preference was calculated as amount of the sucrose solution consumed as a percentage of the total amount of liquid consumed.
Social interaction test (SIT). As described previously (Berton et al., 2006), rats were placed in a plastic enclosure (82×82 cm) with a 5×5 grid of squares (16.4×16.4 cm) visible underneath the clear plastic flooring. A small translucent perforated plastic box (20×16 cm) was placed against the center of one wall of the arena. […]
Each test consisted of a “target-absent” trial followed by a “target-present” trial. During testing, an individual test rat was placed in the center of the arena and, after 30s of adaptation, the rat's movements were recorded with the video camera for 2.5 minutes. […]
Results were quantified as the percentage of time spent in the “interaction zone” (the five grid squares immediately surrounding the plastic cage) as measured for both the “target-absent” and “target-present” trials. […]

TA-CA1 synapses = experiment: Acute slice electrophysiology: fEPSPs at TA-CA1 synapses after in vivo injection; parameters: species or system rat
Experimental: Acute slice electrophysiology. Standard methods were used to prepare 400-μm-thick transverse hippocampal slices. Dissection and recording saline contained: 124 mM NaCl, 3 mM KCl, 1.25 mM NaH2PO4, 1.5 mM MgSO4, 2.5 mM CaCl2, 26 mM NaHCO3, and 10 mM glucose, bubbled with 95% O2/5% CO2. Slices were then transferred to a submersion-type recording chamber and perfused at 0.5 2 ml/min at 20-22° C. Picrotoxin (100 μM) and CGP52432 (2 μM) were included to block GABAA and GABAB receptors, and the CA3 region was removed with a scalpel. Because TA-CA1 synapses are electrotonically remote from CA1 cell somata, extracellular recording of local field excitatory postsynaptic potentials (fEPSPs) was used. Recording pipettes (3-5 MSΩ) contained extracellular saline and were placed in stratum lacunosum-moleculare (SLM) to record TA-CA1 responses. fEPSPs were amplified 1000×, filtered at 3 kHz, and digitized at 10 kHz. Concentric bipolar tungsten electrodes were placed >500 μm from the […] in SLM for TA afferents. Stimuli (100 μs) were delivered at 0.05 Hz.
As in previous work (Kallarackal et al., 2013), Mg2+-free saline was used to produce a robust NMDAR-mediated component of the fEPSP for quantification of AMPAR-mediated synaptic excitation. 3-5 consecutive responses were averaged and fEPSP slope was calculated over a 1-3 ms window. […] For NMDA responses, DNQX (50 μM) was bath applied for 15 min and the slope was calculated over a 3-5 ms window in the rising phase of the response, 5-10 ms after its initiation. […]
The inventors used extracellular electrophysiological recording of fEPSPs at TA-CA1 synapses in SLM of area CA1 in brain slices prepared from unstressed rats, rats subjected to ten days of CRS and given a vehicle injection 24 hrs earlier, and rats subjected to ten days of CRS and given an L-655,708 injection 24 hrs earlier (0.7 mg/kg, i.p.). These were the same rats used for the behavioral analyses in FIG. 6. fEPSPs were recorded in ACSF lacking added Mg2+ so as to unblock NMDA receptors. […]

GluA1 = experiment: Western blotting of GluA1 in SLM tissue of hippocampal area CA1; type: in vivo, rat
Text: Western blotting. SLM tissue punches (1 mm diameter) were dissected from area CA1 in hippocampal slices and pooled (3-4 punches/sample). Membranes were probed with antibodies directed against GluA1 (Millipore Bioscience Research Reagents) and β-actin (Cell Signaling Technology). Levels of proteins are expressed as the ratio of intensity normalized to β-actin intensity, as done previously (Kallarackal et al., 2013).
SLM tissue was harvested from slices taken from unstressed rats, rats subjected to ten days of CRS and given a vehicle injection 24 hrs earlier, and rats subjected to ten days of CRS and given an injection of L-655,708 24 hrs earlier (0.7 mg/kg, i.p.). These were the same rats used for FIG. 6.

[1] = target: GABAARs containing the alpha5 subunit (Homo sapiens, UniProt P18507+P31644); conditions: Atack et al., 2005; 2006; cited from earlier work
Sequence of GABAARs containing the alpha5 subunit (P31644 32-462): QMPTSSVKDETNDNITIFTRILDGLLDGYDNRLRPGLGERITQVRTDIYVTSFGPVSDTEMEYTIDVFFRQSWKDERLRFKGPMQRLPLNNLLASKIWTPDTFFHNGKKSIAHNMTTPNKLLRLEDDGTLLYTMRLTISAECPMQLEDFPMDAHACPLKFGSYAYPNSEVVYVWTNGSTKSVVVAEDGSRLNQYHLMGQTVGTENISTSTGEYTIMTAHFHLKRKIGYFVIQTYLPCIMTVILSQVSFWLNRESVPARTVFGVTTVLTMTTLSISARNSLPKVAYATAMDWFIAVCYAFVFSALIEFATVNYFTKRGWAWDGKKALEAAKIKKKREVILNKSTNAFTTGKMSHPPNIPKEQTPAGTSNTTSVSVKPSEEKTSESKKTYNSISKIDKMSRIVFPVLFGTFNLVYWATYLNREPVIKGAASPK
Sequence of GABAARs containing the alpha5 subunit (P18507 40-475): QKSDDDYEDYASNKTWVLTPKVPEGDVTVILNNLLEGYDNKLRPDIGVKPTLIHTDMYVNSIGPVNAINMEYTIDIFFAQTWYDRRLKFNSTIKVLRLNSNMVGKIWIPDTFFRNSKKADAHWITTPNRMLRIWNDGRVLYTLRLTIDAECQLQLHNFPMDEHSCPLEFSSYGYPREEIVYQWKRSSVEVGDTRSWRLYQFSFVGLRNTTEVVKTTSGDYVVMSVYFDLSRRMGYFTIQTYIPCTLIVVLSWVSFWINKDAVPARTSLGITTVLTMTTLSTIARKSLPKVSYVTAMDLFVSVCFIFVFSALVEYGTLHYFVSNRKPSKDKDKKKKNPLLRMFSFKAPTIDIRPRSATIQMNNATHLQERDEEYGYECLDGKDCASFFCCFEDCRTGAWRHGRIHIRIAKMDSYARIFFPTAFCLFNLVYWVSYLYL
Sequence of GABAARs containing the alpha5 subunit (P28472 26-473 partner): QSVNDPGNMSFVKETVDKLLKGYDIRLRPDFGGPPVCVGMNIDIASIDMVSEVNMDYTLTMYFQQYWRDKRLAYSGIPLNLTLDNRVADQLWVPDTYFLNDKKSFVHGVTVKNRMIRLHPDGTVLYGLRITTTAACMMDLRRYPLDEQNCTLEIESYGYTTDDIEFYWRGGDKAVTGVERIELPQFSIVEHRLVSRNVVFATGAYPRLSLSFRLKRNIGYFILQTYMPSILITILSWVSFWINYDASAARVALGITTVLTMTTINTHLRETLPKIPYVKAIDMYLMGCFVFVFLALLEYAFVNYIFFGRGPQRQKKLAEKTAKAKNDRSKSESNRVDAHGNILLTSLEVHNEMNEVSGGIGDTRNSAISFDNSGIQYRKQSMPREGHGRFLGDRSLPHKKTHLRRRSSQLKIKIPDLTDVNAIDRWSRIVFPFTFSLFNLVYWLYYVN

[2] = slices from rats after 10 days CRS, L-655,708 0.7 mg/kg i.p. 24 hrs earlier

CCOC(=O)c1ncn2c1[C@@H]1CCCN1C(=O)c1cc(OC)ccc1-2 [L-655,708, ethyl (13aS)-7-methoxy-9-oxo-11, 12,13,13 a-terahydro-9H-imidazo[1,5-a]pyrrolo[2,1-c] [1,4]benzodiazepine-1-carboxylate]
social interaction (unstressed rats): no change | sucrose preference (unstressed rats): no change | AMPA:NMDA ratio (TA-CA1 synapses; slices from CRS rats, L-655,708 24 hrs earlier, compared to vehicle-treated CRS animals): significantly higher | AMPAR-mediated signaling at TA-CA1 synapses (slope of AMPAR component of fEPSP) (TA-CA1 synapses; [2]): reversed rapidly | slope of the NMDA component of the fEPSP (TA-CA1 synapses; [2]): no corresponding difference | phosphorylation of S831 of GluA1 in SLM (GluA1; CRS rats, 24 hours after injection): increased | GluA1 protein level in SLM (normalized to β-actin) (GluA1; CRS rats, L-655,708 24 hrs earlier): not significantly different than levels in unstressed controls; also recorded: increased | phosphorylation of S831 and total GluA1 expression in SLM (GluA1; unstressed animals, 24 hours after injection): no effect | selectivity for GABAARs containing the alpha5 subunit [1]: 10-100 fold

Reference: patent publication US11083732B2, “Use of negative modulators of GABA receptors containing alpha5 subunits as fast acting antidepressants” (University of Maryland, Baltimore, priority 2014, dated 2021)
